Measurements reported in ChEMBL document CHEMBL1201862, “PubChem BioAssay data set” (2004).
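The compound was tested at five concentrations on cells cultured in 96-well plates, with a 48-hour exposure period. Here, GI50 denotes the concentration required for 50% inhibition of growth.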 Activity calls are given as the source filed them. Cut-off read from the data, not from the text of the source: active = GI50 up to about 1.1 µM and inactive = higher.

How the values were obtained:
Test in all cases: DTP human tumour cell line panel, 48 h
786-0 = tested on: 786-0
A498 = tested on: A498
A549 = tested on: A549
ACHN = tested on: ACHN
CAKI-1 = tested on: CAKI-1
CCRF-CEM = tested on: CCRF-CEM
COLO 205 = tested on: COLO 205
DLD-1 = tested on: DLD-1
DMS-273 = tested on: DMS-273
HCC 2998 = tested on: HCC 2998
HCT-116 = tested on: HCT-116
HCT-15 = tested on: HCT-15
HL-60 = tested on: HL-60
HOP-18 = tested on: HOP-18
HOP-62 = tested on: HOP-62
HOP-92 = tested on: HOP-92
HT-29 = tested on: HT-29
IGROV-1 = tested on: IGROV-1
K562 = tested on: K562
KM12 = tested on: KM12
LOX IMVI = tested on: LOX IMVI
LXFL 529 = tested on: LXFL 529
M14 = tested on: M14
M19-MEL = tested on: M19-MEL
MOLT-4 = tested on: MOLT-4
Malme-3M = tested on: Malme-3M
NCI-H23 = tested on: NCI-H23
NCI-H460 = tested on: NCI-H460
NCI-H522 = tested on: NCI-H522
OVCAR-3 = tested on: OVCAR-3
OVCAR-4 = tested on: OVCAR-4
OVCAR-5 = tested on: OVCAR-5
OVCAR-8 = tested on: OVCAR-8
RPMI-8226 = tested on: RPMI-8226
RXF 393 = tested on: RXF 393
RXF 631 = tested on: RXF 631
SF-268 = tested on: SF-268
SF-295 = tested on: SF-295
SF-539 = tested on: SF-539
SK-MEL-28 = tested on: SK-MEL-28
SK-MEL-2 = tested on: SK-MEL-2
SK-MEL-5 = tested on: SK-MEL-5
SK-OV-3 = tested on: SK-OV-3
SN12C = tested on: SN12C
SNB-19 = tested on: SNB-19
SNB-75 = tested on: SNB-75
SNB-78 = tested on: SNB-78
SR = tested on: SR
SW-620 = tested on: SW-620
TK-10 = tested on: TK-10
U-251 = tested on: U-251
UACC-257 = tested on: UACC-257
UO-31 = tested on: UO-31
DU-145 = tested on: DU-145
EKVX = tested on: EKVX
KM-20L2 = tested on: KM-20L2
NCI-H226 = tested on: NCI-H226
PC-3 = tested on: PC-3
UACC-62 = tested on: UACC-62

Cc1cc(=O)cc2sc3c(C)cccc3nc1-2
GI50 (786-0): 17.6 µM (inactive) | GI50 (A498): 23.3 µM (inactive) | GI50 (A549): 63.5 µM (inactive) | GI50 (ACHN): 49.1 µM (inactive) | GI50 (CAKI-1): 39.9 µM (inactive) | GI50 (CCRF-CEM): 15.4 µM (inactive) | GI50 (COLO 205): 18.4 µM (inactive) | GI50 (DLD-1): 22.1 µM (inactive) | GI50 (DMS-273): 83.6 µM (inactive) | GI50 (HCC 2998): 51.4 µM (inactive) | GI50 (HCT-116): 22.4 µM (inactive) | GI50 (HCT-15): 48.1 µM | GI50 (HL-60): 18.9 µM (inactive) | GI50 (HOP-18): 41.9 µM (inactive) | GI50 (HOP-62): 95.3 µM (inactive) | GI50 (HOP-92): 22.4 µM (inactive) | GI50 (HT-29): 35.1 µM (inactive) | GI50 (IGROV-1): 24.9 µM (inactive) | GI50 (K562): 23.6 µM (inactive) | GI50 (KM12): 22.5 µM (inactive) | GI50 (LOX IMVI): 17.3 µM (inactive) | GI50 (LXFL 529): 12.2 µM (inactive) | GI50 (M14): 21.8 µM (inactive) | GI50 (M19-MEL): 19.5 µM (inactive) | GI50 (MOLT-4): 14.4 µM (inactive) | GI50 (Malme-3M): 92.7 µM (inactive) | GI50 (NCI-H23): 37.2 µM (inactive) | GI50 (NCI-H460): 25.4 µM (inactive) | GI50 (NCI-H522): 25.1 µM (inactive) | GI50 (OVCAR-3): 15.5 µM (inactive) | GI50 (OVCAR-4): 15.8 µM (inactive) | GI50 (OVCAR-5): 49.9 µM (inactive) | GI50 (OVCAR-8): 27.7 µM (inactive) | GI50 (RPMI-8226): 19.9 µM (inactive) | GI50 (RXF 393): 35.4 µM (inactive) | GI50 (RXF 631): > 100 µM (inactive) | GI50 (SF-268): 11.5 µM (inactive) | GI50 (SF-295): 35 µM (inactive) | GI50 (SF-539): 31.1 µM (inactive) | GI50 (SK-MEL-28): 23.1 µM (inactive) | GI50 (SK-MEL-2): 17.7 µM (inactive) | GI50 (SK-MEL-5): 17.7 µM (inactive) | GI50 (SK-OV-3): > 100 µM (inactive) | GI50 (SN12C): 23.6 µM (inactive) | GI50 (SNB-19): > 100 µM (inactive) | GI50 (SNB-75): 69.5 µM (inactive) | GI50 (SNB-78): 53.6 µM (inactive) | GI50 (SR): 22.9 µM (inactive) | GI50 (SW-620): 4.56 µM (inactive) | GI50 (TK-10): 32.7 µM (inactive) | GI50 (U-251): 37.1 µM (inactive) | GI50 (UACC-257): 62.8 µM (inactive) | GI50 (UO-31): 28.6 µM (inactive)

O=CN/C=C/c1ccccc1
GI50 (786-0): > 100 µM (inactive) | GI50 (A498): > 100 µM (inactive) | GI50 (A549): > 100 µM (inactive) | GI50 (ACHN): > 100 µM (inactive) | GI50 (CAKI-1): > 100 µM (inactive) | GI50 (CCRF-CEM): > 100 µM (inactive) | GI50 (COLO 205): > 63.2 µM (inactive) | GI50 (DLD-1): > 100 µM (inactive) | GI50 (DMS-273): > 100 µM (inactive) | GI50 (DU-145): > 100 µM (inactive) | GI50 (EKVX): > 100 µM (inactive) | GI50 (HCC 2998): > 100 µM (inactive) | GI50 (HCT-116): > 100 µM (inactive) | GI50 (HCT-15): > 100 µM | GI50 (HL-60): > 100 µM (inactive) | GI50 (HOP-18): > 100 µM (inactive) | GI50 (HOP-62): > 100 µM (inactive) | GI50 (HOP-92): > 100 µM (inactive) | GI50 (HT-29): > 100 µM (inactive) | GI50 (IGROV-1): > 100 µM (inactive) | GI50 (K562): > 31.6 µM (inactive) | GI50 (KM-20L2): > 100 µM (inactive) | GI50 (KM12): > 100 µM (inactive) | GI50 (LOX IMVI): > 100 µM (inactive) | GI50 (LXFL 529): > 100 µM (inactive) | GI50 (M14): > 100 µM (inactive) | GI50 (M19-MEL): > 100 µM (inactive) | GI50 (MOLT-4): > 100 µM (inactive) | GI50 (Malme-3M): > 100 µM (inactive) | GI50 (NCI-H226): > 100 µM (inactive) | GI50 (NCI-H23): > 100 µM (inactive) | GI50 (NCI-H460): > 100 µM (inactive) | GI50 (NCI-H522): > 100 µM (inactive) | GI50 (OVCAR-3): > 100 µM (inactive) | GI50 (OVCAR-4): > 100 µM (inactive) | GI50 (OVCAR-5): > 100 µM (inactive) | GI50 (OVCAR-8): > 100 µM (inactive) | GI50 (PC-3): > 100 µM (inactive) | GI50 (RPMI-8226): > 100 µM (inactive) | GI50 (RXF 393): > 100 µM (inactive) | GI50 (RXF 631): > 100 µM (inactive) | GI50 (SF-268): > 100 µM (inactive) | GI50 (SF-295): > 100 µM (inactive) | GI50 (SF-539): > 100 µM (inactive) | GI50 (SK-MEL-28): > 100 µM (inactive) | GI50 (SK-MEL-2): > 100 µM (inactive) | GI50 (SK-MEL-5): > 100 µM (inactive) | GI50 (SK-OV-3): > 100 µM (inactive) | GI50 (SN12C): > 100 µM (inactive) | GI50 (SNB-19): > 100 µM (inactive) | GI50 (SNB-75): > 100 µM (inactive) | GI50 (SNB-78): > 100 µM (inactive) | GI50 (SR): > 94.8 µM (inactive) | GI50 (SW-620): > 51.2 µM (inactive) | GI50 (TK-10): > 100 µM (inactive) | GI50 (U-251): > 100 µM (inactive) | GI50 (UACC-257): > 100 µM (inactive) | GI50 (UACC-62): > 100 µM (inactive) | GI50 (UO-31): > 87.3 µM (inactive)
